Measurements published in the supplement of paper PMC13380429.

Legend:
Conditions in all cases: 72 h
Calu-3 [1] = assay: drug sensitivity score (DSS) for viability; higher = more toxic; extreme values may be limits of the assay
HepG2 [2] = assay: as above
U2OS [3] = assay: as above
Caco-2 [4] = assay: as above
Vero E6 [5] = assay: as above
Calu-3 [6] = assay: cell viability relative to DMSO; higher = less toxic
HepG2 [7] = assay: as above
U2OS [8] = assay: as above
Caco-2 [9] = assay: as above
Vero E6 [10] = assay: as above
Calu-3 [11] = assay: relative viability EC50 (midpoint between 100% and the lowest measured viability); higher = less toxic
HepG2 [12] = assay: as above
U2OS [13] = assay: as above
Caco-2 [14] = assay: as above
Vero E6 [15] = assay: as above

Structure (SMILES)	drug sensitivity score (Calu-3 [1])	drug sensitivity score (HepG2 [2])	drug sensitivity score (U2OS [3])	drug sensitivity score (Caco-2 [4])	drug sensitivity score (Vero E6 [5])	cell viability (Calu-3 [6]; 1 nM)	cell viability (Calu-3 [6]; 10 nM)	cell viability (Calu-3 [6]; 100 nM)	cell viability (Calu-3 [6]; 1000 nM)	cell viability (Calu-3 [6]; 10000 nM)	cell viability (HepG2 [7]; 1 nM)	cell viability (HepG2 [7]; 10 nM)	cell viability (HepG2 [7]; 100 nM)	cell viability (HepG2 [7]; 1000 nM)	cell viability (HepG2 [7]; 10000 nM)	cell viability (U2OS [8]; 1 nM)	cell viability (U2OS [8]; 10 nM)	cell viability (U2OS [8]; 100 nM)	cell viability (U2OS [8]; 1000 nM)	cell viability (U2OS [8]; 10000 nM)	cell viability (Caco-2 [9]; 1 nM)	cell viability (Caco-2 [9]; 10 nM)	cell viability (Caco-2 [9]; 100 nM)	cell viability (Caco-2 [9]; 1000 nM)	cell viability (Caco-2 [9]; 10000 nM)	cell viability (Vero E6 [10]; 1 nM)	cell viability (Vero E6 [10]; 10 nM)	cell viability (Vero E6 [10]; 100 nM)	cell viability (Vero E6 [10]; 1000 nM)	cell viability (Vero E6 [10]; 10000 nM)	relative viability EC50 (Calu-3 [11])	relative viability EC50 (HepG2 [12])	relative viability EC50 (U2OS [13])	relative viability EC50 (Caco-2 [14])	relative viability EC50 (Vero E6 [15])
NC(N)=Nc1nc(CSCCN/C=N/S(=O)(=O)c2ccc(Br)cc2)cs1 [ebrotidine]	0	0.5	0	0	0	96%	101%	94.8%	101%	93.3%	98.2%	97.6%	112%	93.4%	86.5%	100%	103%	98.6%	106%	98.9%	97.8%	102%	95%	99.5%	99.9%	88.7%	91.8%	97.7%	90.6%	105%	> 10 µM	> 10 µM	> 10 µM	> 10 µM	> 10 µM
CCc1cn([C@H]2C[C@H](O)[C@@H](CO)O2)c(=O)[nH]c1=O [edoxudine]	0	0	0	0	0	102%	95.6%	101%	97%	99.1%	93.8%	88.3%	98.6%	87.4%	85.8%	102%	101%	98.8%	98.8%	95.3%	89.6%	93.6%	99.9%	88.2%	99.5%	102%	101%	98%	96%	92.4%	> 10 µM	> 10 µM	> 10 µM	> 10 µM	> 10 µM
COc1ccc(CN(C(=O)[C@@H](N)Cc2c(C)cc(C(N)=O)cc2C)[C@@H](C)c2ncc(-c3ccccc3)[nH]2)cc1C(=O)O [eluxadoline]	0	0	0	0	0	96.6%	105%	95.1%	118%	101%	99.6%	95.4%	97.1%	99.9%	105%	91.5%	98.3%	96.1%	100%	98%	94.1%	98.2%	97.6%	98.5%	113%	104%	101%	94.5%	98.2%	103%	> 10 µM	> 10 µM	> 10 µM	> 10 µM	> 10 µM
CCCn1c(=O)[nH]c(=O)c2nc[nH]c21 [enprofylline]	0	0.2	0	0	0	105%	96.9%	95.6%	108%	109%	97.4%	110%	100%	95.9%	88.2%	104%	99.1%	98.9%	97.6%	104%	104%	100%	99.5%	104%	95.5%	97.6%	98.3%	91.1%	94.7%	94.5%	> 10 µM	> 10 µM	> 10 µM	> 10 µM	> 10 µM
CCOC(=O)[C@@H](C)Oc1ccc(Oc2nc3ccc(Cl)cc3o2)cc1 [fenoxaprop-p-ethyl]	0	0	0	0	0	105%	99%	113%	110%	112%	97.9%	102%	103%	101%	108%	101%	97.9%	97.3%	101%	99.8%	102%	100%	103%	101%	97.2%	96.8%	92.2%	93.8%	101%	115%	> 10 µM	> 10 µM	> 10 µM	> 10 µM	> 10 µM
CS(=O)(=O)c1ccc([C@@H](O)[C@@H](CF)NC(=O)C(Cl)Cl)cc1 [florfenicol]	0	3.9	0	0	0	93.7%	90.8%	86.2%	103%	98.8%	107%	91%	115%	93.1%	48%	99.9%	96.2%	99.1%	98.3%	99.5%	109%	99.9%	107%	97.1%	96%	100%	104%	95.9%	104%	95.2%	> 10 µM	2.11 µM	> 10 µM	> 10 µM	> 10 µM
